According to patent publication US6602664B2 (priority 1998, dated 2003):
Values joined by “and” are separate entries in the source; they are usually repeats but may differ in a detail not shown here. Identical values can stand only once. Like-named read-outs stand apart in the source and are kept apart here.

How the values were obtained:
[1] = system: drug-resistant HIV-1 in PBMC; test: microbe, parasite or virus in culture; type: cell-based; conditions: for EC50: Human immunodeficiency virus 1, PBMC, PBMC
[2] = system: drug-resistant HIV-1 in MT-2; test: microbe, parasite or virus in culture; type: cell-based; conditions: MT-2
HIV = conditions: U.S. Pat. No. 4,916,122; cited from earlier work
[3] = system: drug-resistant HIV-1 in HeLa HT4-6C; test: microbe, parasite or virus in culture; type: cell-based; conditions: Human immunodeficiency virus 1, HeLa
[4] = system: recombinant HIV-1 virus isolates; type: cell-based
From the text: The aim of the study was to determine the potency of the inhibitory effect of a new generation of NRTIs on Multi Drug Resistant isolates and to compare it with their effect on wild-type HIV-1 isolates. All recombinant viruses were taken from the VIRCO repository of phenotypically and genotypically characterized virus isolates. Hirsch et al. Antiretroviral Drug Resistance Testing in Adults with HIV Infection. JAMA; 1998: 79(24) 1984-1991. See also Pauwels et al. Comprehensive HIV drug Resistance monitoring using rapid, high-throughput phenotypic and genotypic assays with correlative data analysis. Antiviral Therapy, 1998: 3: 35 Abstract 51.
Phenotypic drug susceptibility determination of recombinant virus isolates is described in Hertogs et al. A Rapid Method for Simultaneous Detection of Phentypic Resistance to Inhibitors of Protease and Reverse Transcriptase in Recombinant HIV-1 Isolates from Patients Treated with Antiretroviral Drugs. Antimicrob. Agents Chemother. 1998; 42(2): 269-276. The basic principle of the Antivirogram® technology is the construction of chimeric HIV-1 strains composed of the protease (PR) and reverse transcriptase (RT) gene sequences which are isolated and amplified from patient viral RNA. Amplicons are subsequently transfected into CD4+T cells together with a standard laboratory isogenic (HXB2) HIV-1 DNA construct from which the PR/RT gene sequences were deleted. After homologous recombination, new viruses whose diversity reflects the original population amplified from the plasma are produced at high level from these cells.
The virus infectivity (CCID50) is determined by an end-point dilution method. The titer is calculated from the degree of infection, measured by the intensity of reporter-gene signal as generated by serial dilutions of the virus shock. The chimeric (clinical isolates and wild-type reference) viruses are then analyzed for their phenotypic sensitivity (i.e. susceptibility) to the different PR and RT-inhibitors in an automated reporter gene-based assay using serial dilutions of the compound. The standardisation of the Antivirogram®n assay allows for simultaneous testing of all clinically approved drugs in one 384-well microtiter plate. The experimental drugs are included in separate plates. Each plate contains multiple replicates of mock-infected wells, virus-infection control wells and blank (medium-only) well. All plates are tested in duplicate. 50% Inhibitory concentrations are calculated based on reporter signals obtained through optical reading of 384-well plates containing serial dilutions of compounds, a normalised quantity of virus and by taking into account all relevant control wells. Approval (or not) is done according to critical ranges and settings as described in the corresponding VIRCO Standard Operating Procedure.
A more detailed description of the protocol is as follows. Samples were stored frozen. […] To confirm the genotypic pattern, genotyping (ABI-sequencing) was performed after recombination and culture of the laboratory strains by analysis of cell viability, calculation of results (dose-response curves, IC50 values), and reporting of data.

[5] = U.S. Pat. No. 4,916,122; cited from earlier work
[6] = system: drug-resistant HIV-1 in MT-4; test: microbe, parasite or virus in culture; type: cell-based
[7] = system: HIV-1 replication in human PBM cells; test: microbe, parasite or virus in culture; type: cell-based
Procedure: Cells and viruses. […] Antimicrobial Agents Chemother 1992;36(11): 2423-2431.
Cell pellets were washed, centrifuged, lysed and the proviral DNA extracted as previously described. Cytotoxicity of the compounds was determined using the Promega Cell Titer 96 dye uptake assay (Madison, Wis.) in 1-2 day PHA-stimulated PBM cells after 5 days in culture. The median effective concentration (EC50) and inhibitory concentration (IC50) were derived from the computer-generated median effect plot of the dose-effect data, as described previously.

[8] = clinical isolate (pre) prior to long-term ZDV monotherapy, row HIV-1 (A012D), read-out: Untreated EC50
[9] = clinical isolate HIV-1 (A012D:M41L?/D67N/K70R/T215F/K219Q), read-out: Selected Varient EC50
[10] = Human immunodeficiency virus 1, PBMC, 144 h

[N-]=[N+]=N[C@H]1C[C@H](n2ccc(=O)[nH]c2=O)O[C@@H]1CO [CS-87, 3′-Azido-2′,3′-dideoxyuridine]
fold change in EC50 [1]: < 3 fold
EC50 [1, 8]: 0.4 µM
EC50 [1, 9]: 16.5 µM
EC50 ([1]; molecular clone 1 (T215Y/M41L), read-out: Selected Varient EC50): 2.1 µM
EC50 ([1]; molecular clone (M184V/T215Y), read-out: Selected Varient EC50): 1.1 µM
EC50 ([1]; molecular clone HIV-1 (D67N/K70R/T215Y/K219Q), read-out: Selected Varient EC50): 0.3 µM
EC50 ([1]; molecular clone HIV-1 (K65R), read-out: Selected Varient EC50): 1.1 µM
EC50 ([1]; molecular clone HIV-1 (L74V), read-out: Selected Varient EC50): 0.6 µM
EC50 ([1]; molecular clone HIV-1 (M184V), read-out: Selected Varient EC50): 0.6 µM
EC50 ([1]; molecular clone HIV-1 (T215Y), read-out: Selected Varient EC50): 0.3 µM
EC50 ([1]; parent strain HIV-1 (xxLAI), row 1 (T215Y/M41L), read-out: Untreated EC50): 1.1 µM
EC50 ([1]; parent strain HIV-1 (xxLAI), row (M184V/T215Y), read-out: Untreated EC50): 1.1 µM
EC50 ([1]; parent strain HIV-1 (xxLAI), row HIV-1 (D67N/K70R/T215Y/K219Q), read-out: Untreated EC50): 1.1 µM
EC50 ([1]; parent strain HIV-1 (xxLAI), row HIV-1 (K65R), read-out: Untreated EC50): 1.1 µM
EC50 ([1]; parent strain HIV-1 (xxLAI), row HIV-1 (L74V), read-out: Untreated EC50): 1.1 µM
EC50 ([1]; parent strain HIV-1 (xxLAI), row HIV-1 (M184V), read-out: Untreated EC50): 1.1 µM
EC50 ([1]; parent strain HIV-1 (xxLAI), row HIV-1 (T215Y), read-out: Untreated EC50): 1.1 µM
EC50 ([2]; Human immunodeficiency virus 1, MT2, molecular clone HIV-1 (D67N/K70R/M184V/T215Y/K219Q), read-out: Selected Varient EC50): 53.4 µM
EC50 ([2]; Human immunodeficiency virus 1, MT2, molecular clone HIV-1 (D67N/K70R/T215Y/K219Q), read-out: Selected Varient EC50): > 90 µM
EC50 ([2]; Human immunodeficiency virus 1, MT2, molecular clone HIV-1 (M41L/D67N/M184V/H208Y/L210W/R211K/L214F/T215Y), read-out: Selected Varient EC50): 50.2 µM
EC50 ([2]; Human immunodeficiency virus 1, MT2, molecular clone HlV-1 (M184V), read-out: Selected Varient EC50): 16.8 µM
EC50 ([2]; Human immunodeficiency virus 1, MT2, parent strain HIV-1 (xxLAI), row HIV-1 (D67N/K70R/M184V/T215Y/K219Q), read-out: Untreated EC50): 20 µM
EC50 ([2]; Human immunodeficiency virus 1, MT2, parent strain HIV-1 (xxLAI), row HIV-1 (D67N/K70R/T215Y/K219Q), read-out: Untreated EC50): 20 µM
EC50 ([2]; Human immunodeficiency virus 1, MT2, parent strain HIV-1 (xxLAI), row HIV-1 (M41L/D67N/M184V/H208Y/L210W/R211K/L214F/T215Y), read-out: Untreated EC50): 20 µM
EC50 ([2]; Human immunodeficiency virus 1, MT2, parent strain HIV-1 (xxLAI), row HlV-1 (M184V), read-out: Untreated EC50): 20 µM
anti-HIV activity (HIV): significant anti-HIV activity
EC50 [3, 8]: 0.4 µM
EC50 ([3]; clinical isolate (pre) prior to long-term ZDV monotherapy, row HIV-1 (A018C), read-out: Untreated EC50): 1 µM
EC50 ([3]; clinical isolate (pre) prior to long-term ZDV monotherapy, row HIV-1 (A036DD), read-out: Untreated EC50): 0.6 µM
EC50 ([3]; clinical isolate (pre) prior to long-term ZDV monotherapy, row HIV-1 (P022C), read-out: Untreated EC50): 0.4 µM
EC50 ([3]; clinical isolate (pre) prior to long-term ZDV monotherapy, row HIV-1 (P026B), read-out: Untreated EC50): 0.4 µM
EC50 [3, 9]: 89 µM
EC50 ([3]; clinical isolate HIV-1 (A018C:D67N/K70R/T215Y/K219Q), read-out: Selected Varient EC50): 50 µM
EC50 ([3]; clinical isolate HIV-1 (A036DD:M41L/D67N/K70R/T215Y), read-out: Selected Varient EC50): 56 µM
EC50 ([3]; clinical isolate HIV-1 (P022C:M41L?/D67N/K70R/T215F/K219Q), read-out: Selected Varient EC50): 40 µM
EC50 ([3]; clinical isolate HIV-1 (P026B:M41L?/D67N/K70R/T215Y), read-out: Selected Varient EC50): 100 µM
activity against multiple-drug resistant forms of HIV [4]: active
susceptibility of multiple dideoxynucleoside resistant viruses [4]: resistant
toxicity compared with AZT [5]: lower toxicity than AZT
EC50 ([6]; Human immunodeficiency virus 1, MT4, clinical isolate (pre) prior to long-term ZDV monotherapy, row HIV-1 (A-161), read-out: Untreated EC50): 0.6 µM
EC50 ([6]; Human immunodeficiency virus 1, MT4, clinical isolate (pre) prior to long-term ZDV monotherapy, row HIV-1 (C-246), read-out: Untreated EC50): 0.6 µM
EC50 ([6]; Human immunodeficiency virus 1, MT4, clinical isolate (pre) prior to long-term ZDV monotherapy, row HIV-1 (G-68), read-out: Untreated EC50): 0.6 µM
EC50 ([6]; Human immunodeficiency virus 1, MT4, clinical isolate (pre) prior to long-term ZDV monotherapy, row HIV-1 (R-102), read-out: Untreated EC50): 0.6 µM
EC50 ([6]; Human immunodeficiency virus 1, MT4, clinical isolate (pre) prior to long-term ZDV monotherapy, row HIV-1 (X-78), read-out: Untreated EC50): 0.6 µM
EC50 ([6]; Human immunodeficiency virus 1, MT4, clinical isolate HIV-1 (A-161), long-term ZDV monotherapy, read-out: Selected Varient EC50): 8.6 µM
EC50 ([6]; Human immunodeficiency virus 1, MT4, clinical isolate HIV-1 (C-246), long-term ZDV monotherapy, read-out: Selected Varient EC50): 10.3 µM
EC50 ([6]; Human immunodeficiency virus 1, MT4, clinical isolate HIV-1 (G-68), long-term ZDV monotherapy, read-out: Selected Varient EC50): 0.5 µM
EC50 ([6]; Human immunodeficiency virus 1, MT4, clinical isolate HIV-1 (R-102), long-term ZDV monotherapy, read-out: Selected Varient EC50): 0.3 µM
EC50 ([6]; Human immunodeficiency virus 1, MT4, clinical isolate HIV-1 (X-78), long-term ZDV monotherapy, read-out: Selected Varient EC50): 0.5 µM
m ± SE (slope of median effect plot) [7]: 1.62 ± 0.13 and 1.50 ± 0.33 and 1.01 ± 0.01
inhibition at 10 µM [7, 10]: 34.5%
inhibition at 100 µM [7, 10]: 32%
inhibition at 1000 µM [7, 10]: 87.3%
